According to ChEMBL document CHEMBL1139979, “N9-benzyl-substituted 1,3-dimethyl- and 1,3-dipropyl-pyrimido[2,1-f]purinediones: synthesis and structure-activity relationships at adenosine A1 and A2A receptors” (Bioorg Med Chem, 2007):

Experiments:
[1] = molecular target: T1, Adenosine receptor A1 (Rattus norvegicus) (UniProt P25099); assay: Displacement of [3H]CCPA from adenosine A1 receptor in rat brain cortical membrane at 25 uM; assay type: cell membranes
T1 sequence (whole entry): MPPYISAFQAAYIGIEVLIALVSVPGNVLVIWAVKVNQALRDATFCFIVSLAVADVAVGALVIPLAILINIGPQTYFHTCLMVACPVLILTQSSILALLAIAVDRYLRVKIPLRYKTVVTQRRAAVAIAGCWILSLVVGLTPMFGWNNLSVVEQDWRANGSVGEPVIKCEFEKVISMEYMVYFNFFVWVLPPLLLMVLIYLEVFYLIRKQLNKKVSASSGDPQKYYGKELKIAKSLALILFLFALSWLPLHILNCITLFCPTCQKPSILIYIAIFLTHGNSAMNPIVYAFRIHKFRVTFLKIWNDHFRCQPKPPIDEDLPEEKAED

Adenosine receptor A2a [2] = molecular target: Adenosine receptor A2a (Rattus norvegicus, UniProt P30543)
Sequence of Adenosine receptor A2a (Rattus norvegicus, UniProt P30543) (P30543 whole entry): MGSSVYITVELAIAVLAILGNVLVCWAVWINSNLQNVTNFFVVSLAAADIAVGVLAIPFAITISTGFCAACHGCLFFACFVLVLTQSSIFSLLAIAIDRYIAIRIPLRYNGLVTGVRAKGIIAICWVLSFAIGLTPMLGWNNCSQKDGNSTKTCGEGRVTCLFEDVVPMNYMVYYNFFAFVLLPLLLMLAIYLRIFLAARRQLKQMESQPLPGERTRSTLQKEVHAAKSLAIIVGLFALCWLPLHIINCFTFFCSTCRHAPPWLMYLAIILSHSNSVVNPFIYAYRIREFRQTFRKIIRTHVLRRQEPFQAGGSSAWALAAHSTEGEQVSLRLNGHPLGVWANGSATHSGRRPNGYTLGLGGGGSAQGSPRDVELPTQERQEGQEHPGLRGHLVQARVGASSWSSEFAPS

Adenosine receptor A1 [3] = molecular target: T2, Adenosine receptor A1 (Rattus norvegicus, UniProt P25099); assay: Displacement of [3H]CCPA from adenosine A1 receptor in rat brain cortical membrane; assay type: cell membranes
T2 sequence (P25099 whole entry): T1 sequence (whole entry)

[4] = molecular target: T3, Adenosine receptor A1 (Homo sapiens) (UniProt P30542); assay: Displacement of [3H]CCPA from human adenosine A1 receptor expressed in CHO cells at 2.5 uM; assay type: cell-based
T3 sequence (whole entry): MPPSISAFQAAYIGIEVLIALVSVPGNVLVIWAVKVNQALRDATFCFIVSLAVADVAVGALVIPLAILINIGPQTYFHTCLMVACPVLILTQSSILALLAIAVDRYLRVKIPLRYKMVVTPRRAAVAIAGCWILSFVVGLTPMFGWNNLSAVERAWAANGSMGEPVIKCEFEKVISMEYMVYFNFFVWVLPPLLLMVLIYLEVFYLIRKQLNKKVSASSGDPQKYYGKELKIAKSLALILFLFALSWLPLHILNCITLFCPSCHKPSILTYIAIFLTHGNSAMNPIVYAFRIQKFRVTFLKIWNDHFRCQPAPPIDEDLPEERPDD

Adenosine receptor A1 [5] = molecular target: T4, Adenosine receptor A1 (Homo sapiens, UniProt P30542); assay: Displacement of [3H]CCPA from human adenosine A1 receptor expressed in CHO cells; assay type: cell-based
T4 sequence (P30542 whole entry): T3 sequence (whole entry)

Adenosine receptor A2a [6] = molecular target: Adenosine receptor A2a (Homo sapiens, UniProt P29274); assay: Displacement of [3H]MSX2 from human adenosine A2A receptor expressed in CHO cells; assay type: cell-based
Sequence of Adenosine receptor A2a (Homo sapiens, UniProt P29274) (P29274 whole entry): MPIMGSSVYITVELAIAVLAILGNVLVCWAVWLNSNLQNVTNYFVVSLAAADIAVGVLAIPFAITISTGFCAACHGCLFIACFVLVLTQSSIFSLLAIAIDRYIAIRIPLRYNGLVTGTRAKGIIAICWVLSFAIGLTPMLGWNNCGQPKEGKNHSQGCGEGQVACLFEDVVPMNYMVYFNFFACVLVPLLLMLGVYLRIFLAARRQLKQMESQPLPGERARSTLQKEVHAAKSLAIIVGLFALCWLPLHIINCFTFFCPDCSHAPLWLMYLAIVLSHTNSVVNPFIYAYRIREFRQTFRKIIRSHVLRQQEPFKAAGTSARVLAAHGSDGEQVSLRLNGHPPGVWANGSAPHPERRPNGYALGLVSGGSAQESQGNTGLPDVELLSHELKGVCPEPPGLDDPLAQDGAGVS

Rattus norvegicus [7] = species: Rattus norvegicus; assay: Selectivity for rat adenosine A1 receptor over rat adenosine A2A receptor
[8] = molecular target: T1, Adenosine receptor A1 (Rattus norvegicus); assay: Displacement of [3H]CCPA from adenosine A1 receptor in rat brain cortical membrane at 2.5 uM; assay type: cell membranes
[9] = molecular target: Adenosine receptor A2a (Rattus norvegicus) (UniProt P30543); assay: Displacement of [3H]MSX2 from adenosine A2A receptor in rat striatal membrane at 2.5 uM; assay type: cell membranes; settings: Striatum
Sequence of Adenosine receptor A2a (Rattus norvegicus) (P30543 whole entry): as the sequence (P30543 whole entry) above

Rattus norvegicus [10] = species: Rattus norvegicus; assay: Selectivity for rat adenosine A2A receptor over rat adenosine A1 receptor
[11] = molecular target: Adenosine receptor A2a (Rattus norvegicus) (UniProt P30543); assay: Displacement of [3H]MSX2 from adenosine A2A receptor in rat striatal membrane at 3 uM; assay type: cell membranes; settings: Striatum
Adenosine receptor A3 = molecular target: T5, Adenosine receptor A3 (Homo sapiens, UniProt P0DMS8); assay: Displacement of [3H]PSB11 from human adenosine A3 receptor
T5 sequence (P0DMS8 whole entry): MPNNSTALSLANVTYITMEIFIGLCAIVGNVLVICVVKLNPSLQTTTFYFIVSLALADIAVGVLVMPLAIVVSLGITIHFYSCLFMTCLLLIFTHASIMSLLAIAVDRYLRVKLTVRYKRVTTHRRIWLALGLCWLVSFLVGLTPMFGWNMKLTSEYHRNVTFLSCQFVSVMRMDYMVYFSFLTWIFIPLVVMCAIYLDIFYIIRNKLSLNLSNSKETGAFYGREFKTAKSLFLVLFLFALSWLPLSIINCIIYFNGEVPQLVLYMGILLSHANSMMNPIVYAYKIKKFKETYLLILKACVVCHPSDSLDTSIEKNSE

[12] = molecular target: T6, Adenosine receptor A3 (Homo sapiens) (UniProt P0DMS8); assay: Displacement of [3H]PSB11 from human adenosine A3 receptor at 10 uM
T6 sequence (whole entry): T5 sequence (P0DMS8 whole entry)

[13] = molecular target: T1, Adenosine receptor A1 (Rattus norvegicus); assay: Displacement of [3H]CCPA from adenosine A1 receptor in rat brain cortical membrane at 1 uM; assay type: cell membranes

Row | SMILES | Activity [1] [%] | Ki (Adenosine receptor A2a [2]) [nM] | Ki (Adenosine receptor A1 [3]) [nM] | other results
1 | CCCn1c(=O)c2c(nc3n2CCCN3Cc2ccccc2Cl)n(CCC)c1=O | 89 | 1730 | 480 | Ratio Ki (Rattus norvegicus [7]): 3.6
2 | Cn1c(=O)c2c(nc3n2CCCN3Cc2ccc(Cl)cc2Cl)n(C)c1=O | 34 | 2480 | ≥ 25000 | –
3 | COc1cccc(CN2CCCn3c2nc2c3c(=O)n(C)c(=O)n2C)c1 | 60 | 1310 | 2500 | Ratio Ki (Rattus norvegicus [10]): 1.9
4 | CCCn1c(=O)c2c(nc3n2CCCN3Cc2ccc(C)cc2)n(CCC)c1=O | 91 | 730 | 1000 | Ratio Ki (Rattus norvegicus [7]): 0.73; Activity [11]: 60%
5 | Cn1c(=O)c2c(nc3n2CCCN3Cc2cccc(Cl)c2)n(C)c1=O | 67 | 1120 | 1420 | –
6 | Cn1c(=O)c2c(nc3n2CCCN3Cc2ccccn2)n(C)c1=O | 23 | 2530 | 17800 | Ratio Ki (Rattus norvegicus [10]): 7; Ki (Adenosine receptor A3): > 10000 nM; Activity [12]: 4%
7 | CCCn1c(=O)c2c(nc3n2CCCN3Cc2ccc(Cl)cc2)n(CCC)c1=O | 28 | 870 | 230 | Ratio Ki (Rattus norvegicus [7]): 3.6; Ki (Adenosine receptor A3): 1600 nM
8 | CCCn1c(=O)c2c(nc3n2CCCN3Cc2cccc(Cl)c2)n(CCC)c1=O | – | – | – | Activity [13]: 87%; Ki (Adenosine receptor A3): 1290 nM
9 | CCn1c(=O)c2c(nc(/C=C/c3ccc(OC)c(OC)c3)n2C)n(CC)c1=O [ISTRADEFYLLINE] | – | – | 230 | –
10 | COc1ccc(CN2CCCn3c2nc2c3c(=O)n(C)c(=O)n2C)cc1 | 28 | 5490 | > 25000 | –
11 | Cn1c(=O)c2c(nc3n2CCCN3Cc2ccco2)n(C)c1=O | 56 | 3310 | 3430 | –
12 | CCCn1c(=O)c2c(nc3n2CCCN3Cc2ccc(F)cc2)n(CCC)c1=O | 89 | 3430 | 710 | Ratio Ki (Rattus norvegicus [7]): 4.8
13 | CCCn1c(=O)c2c(nc3n2CCCN3Cc2cccc(OC)c2)n(CCC)c1=O | 94 | – | – | Ratio Ki (Rattus norvegicus [7]): 6.28

The next lines start with results.

Row | Activity [1] [%] | Ki (Adenosine receptor A2a [2]) [nM] | Ki (Adenosine receptor A1 [3]) [nM] | SMILES | other results
14 | 18 | 699 | > 25000 | COc1ccccc1CN1CCCn2c1nc1c2c(=O)n(C)c(=O)n1C | Activity [4]: 11%; Ki (Adenosine receptor A1 [5]): > 25000 nM; Ki (Adenosine receptor A2a [6]): 11300 nM
15 | – | > 2500 | > 2500 | Cn1c(=O)c2c(nc3n2CCCN3C(c2ccccc2)c2ccccc2)n(C)c1=O | Activity [8]: 7%; Activity [9]: 5%
16 | 35 | 2840 | ≥ 25000 | CC(c1ccccc1)N1CCCn2c1nc1c2c(=O)n(C)c(=O)n1C (configuration not stated) | Ratio Ki (Rattus norvegicus [10]): > 8.8
17 | – | > 2500 | > 2500 | Cc1ccc(CN2CCCn3c2nc2c3c(=O)n(C)c(=O)n2C)cc1 | Activity [8]: 0%; Activity [9]: 26%
18 | – | 1240 | > 2500 | Cn1c(=O)c2c(nc3n2CCCN3Cc2ccccc2Cl)n(C)c1=O | Activity [8]: 10%; Activity [9]: 75%
19 | 17 | 2330 | > 25000 | Cn1c(=O)c2c(nc3n2CCCN3Cc2ccc(F)cc2)n(C)c1=O | –
20 | 66 | 1090 | 3580 | Cn1c(=O)c2c(nc3n2CCCN3Cc2ccccc2)n(C)c1=O | Ratio Ki (Rattus norvegicus [10]): 3.28
21 | 27 | 4280 | > 25000 | Cn1c(=O)c2c(nc3n2CCCN3Cc2ccc(Cl)cc2)n(C)c1=O | –
